The text below walks through data of US5726179A, “Muscarinic agonists” (The University of Toledo, priority 1996, dated 1998).

Where a name gives a salt, the structure may show the parent alone.

For assay [1], the system named is experimental animals. The following applies: background, cited from earlier work; for reverse cognitive impairments in experimental animals: natural product agonist ligands.
Assay [2] concerns muscarinic receptors. The experiment in a line: PI cortex: agonist activity at muscarinic receptors in rat central nervous system. The following applies: mean from one to three experiments, each in triplicate. The assay is classed as biochemical.
The subject of assay [3] is M2 receptors. As to conditions: background; cited from earlier work.
The subject of assay [4] is M3 receptors. As to conditions: background; cited from earlier work.
In assay [5] the target is muscarinic receptors. Kind of assay: Binding affinity at muscarinic receptors in rat central nervous system, ligand [3H]-QNB. The following applies: rat CNS; mean from one to three experiments, each in triplicate.
Text: Data represent the mean from one
to three experiments, each performed in triplicate.

For the compound `CC[C@@H]1C(=O)OC[C@@H]1Cc1cncn1C` [pilocarpine], in assay [1], the “reverse cognitive impairments in experimental animals” value is “reverse cognitive impairments”.
For `C#C/C(C)=C\COC(=O)C1CN=CNC1` (stereo not drawn) [CDD-0162-A, (cis)-5-(3-Methyl-2-penten-4-ynyloxycarbonyl)-1,4,5,6-tetrahydropyrimidine HCl], in assay [2], the “PI cortex (at 100 μM)” value is 50 ± 4.3%.
Still for that read-out and setting: the result for `CC#CCOC(=O)C1CN=CNC1.Cl` (stereo not drawn) [CDD-0171-A, 5-(2-Butynyloxycarbonyl)-1,4,5,6-tetrahydropyrimidine HCl] reads 140%.
On to `COC(=O)C1=CCCN(C)C1` [arecoline], for which the “reverse cognitive impairments in experimental animals” value in assay [1] is “reverse cognitive impairments”.
`CN1CCN(CC(=O)N2c3ccccc3C(=O)Nc3cccnc32)CC1` [pirenzepine]: the “produce memory impairments in experimental animals” value in assay [1] (M1 antagonist) was “produce memory impairments”.
Consider `C#CCCOC(=O)C1CN=CNC1` (stereo not drawn) [CDD-0195-A], for which the “PI cortex (at 100 μM)” value in assay [2] turned out to be 100 ± 15%.
On to `CCN(CC)CC1CCCCN1CC(=O)N1c2ccccc2C(=O)Nc2cccnc21` (stereo not drawn) [AF-DX 116], for which the “selective antagonist for M2 receptors” value in assay [3] is on record as “selective antagonists”.
Regarding `O[Si](CCCN1CCCCC1)(c1ccc(F)cc1)C1CCCCC1` (stereo not drawn) [p-F-hexahydrosiladifenidol], the “selective antagonist for M3 receptors” value in assay [4] is “selective antagonists”.
As for “5-(3-Methylpropynyloxycarbonyl)-1,4,5,6-tetrahydropyrimidine HCl [CDD-0177-A]”, the “PI cortex (at 100 μM)” value in assay [2] worked out at 22 ± 3%. The same compound yielded an IC50 in assay [5] of 45 µM.
Consider `C#C/C(C)=C/COC(=O)C1CN=CNC1` (stereo not drawn) [CDD-0161-A, (trans)-5-(3-Methyl-2-penten-4-ynyloxycarbonyl)-1,4,5,6-tetrahydropyrimidine HCl], for which the “PI cortex (at 100 μM)” value in assay [2] turned out to be 35 ± 5.6%.
For the compound `O=C(OCC#Cc1ccccc1)C1CN=CNC1` (stereo not drawn) [CDD-0189-A], the “PI cortex (at 100 μM)” value in assay [2] was 3 ± 8.2%.

What is called IC50 is the concentration that inhibits the measured activity by half. A high value points to weaker potency in that assay.
